The text below walks through data of patent US11672815B2, “Composition for inhibiting immune cell proliferation comprising sialyllactose or derivative thereof and method thereof” (CUPIONE CO., LTD., priority 2017, dated 2023).

For data set [1], the system named is Mmp13. Put plainly: Mmp13 expression in IL-1β-treated chondrocytes (qRT-PCR, Western blotting). The format is cell-based, mouse. To be noted: 5 ng/ml of IL-1β, 0 to 250 μM, 24 hrs; concentration-dependent. As for the experimental part: IL-1β is a representative inflammatory cytokine that decreases Col2a1 essential for cartilage formation in chondrocytes and also promotes articular inflammation and cartilage tissue destruction. Chondrocytes were treated with 5 ng/ml of IL-1β by time, and then qRT-PCR was performed using conditions and primers of the following Table 1 according to the method of Example 2-1 to examine inhibition of Mmp3 and Mmp13 expression.
Secretory proteins such as Mmp3 and Mmp13 were allowed to react at 0° C. for 20 min after reacting 900 μl of serum-free medium (conditioned medium) with 100 μl of trichloroacetic acid (TCA). Next, a supernatant was discarded by centrifugation at 12,000 rpm and 4° C. for 10 min, and then reacted with 500 μl of 100% cold acetone at […] for 1 hr. The sample reacting with 100% acetone was centrifuged to discard a supernatant, and proteins were finally precipitated and detected. Western blotting was performed using anti-Mmp3 antibody (Abcam) and anti-Mmp13 antibody (Abcam), and thickness and concentration of Western blot bands were measured by a computer program and relative values thereof were determined by densitometry.

Data set [2] has as its system mouse FLS. The data set is described as follows: WST-1 assay on mouse FLS. The format is cell-based. As for the experimental part: Anti-chemokine and anti-inflammatory effects of 3′-sialyllactose were examined. First, purity of mouse FLS was examined by FACS analysis, and then no effects of 3′-sialyllactose on FLS proliferation and cytotoxicity were examined by WST-1 assay (see FIGS. 14A-A to 14A-C). […] Therefore, in a subsequent in vitro experiment, 3′-sialyllactose was used at a concentration of 0 μM to 250 μM. In order to examine effects of 3′-sialyllactose on IL-1β-, IL-6-, IL-17-, and TNF-α-induced chemokines (e.g., CCL2, CCL5, CCL7, CXCL1, CXCL2, and CXCL5), pro-inflammatory cytokines (IL-1, IL-6, and TNF-α), and COX2 expression, IL-1β-, IL-6-, IL-17-, and TNF-α-stimulated human RA-FLS and mouse FLS were treated with 3′-sialyllactose (100 μM or 250 μM) for 24 hrs.

On to `CC(=O)N[C@H]1C([C@H](O)[C@H](O)CO)O[C@@](O[C@@H]2C(O)[C@H](O[C@@H]3C(CO)OC(O)C(O)[C@H]3O)OC(CO)[C@@H]2O)(C(=O)[O-])C[C@H]1O.[Na+]` (some centres unmarked) [3′-sialyllactose], for which, in data set [1], the “Mmp13 expression increased by IL-1β in chondrocytes” value is “decreased”. For the same compound, the “FLS proliferation and cytotoxicity” value in data set [2] is recorded as “no effects”.
